ChEMBL document CHEMBL4622905, “Synthesis and antifungal activity of new hybrids pyrimido[4,5-d]pyridazinone-N-acylhydrazones” (Bioorg Med Chem Lett, 2020)
In brackets after ≈: the same amount, converted by molar mass. Activity calls are given as the source filed them. The calls are words filed in the database; no cut-off is given here.

How the values were obtained:
[1] = tested on: Paracoccidioides brasiliensis; assay: Antifungal activity against Paracoccidioides brasiliensis Pb18; format: functional
[2] = tested on: Paracoccidioides brasiliensis; assay: Fungicidal activity against Paracoccidioides brasiliensis Pb18; format: functional
[3] = tested on: Paracoccidioides brasiliensis; assay: Antifungal activity against Paracoccidioides brasiliensis Pb18 in presence of amphotericin B; format: functional
[4] = tested on: Paracoccidioides brasiliensis; assay: Antifungal activity against Paracoccidioides brasiliensis Pb18 in presence of 0.125 ug/ml amphotericin B; format: functional
[5] = tested on: Paracoccidioides brasiliensis; assay: Synergistic antifungal activity against Paracoccidioides brasiliensis Pb18 assessed as fractional inhibitory concentration in presence of amphotericin B; format: functional
HeLa = assay: Cytotoxicity against human HeLa cells at 512 ug/ml; format: cell-based
Vero = assay: Cytotoxicity against monkey Vero cells at 512 ug/ml; format: cell-based; conditions: chlorocebus sabaeus
[6] = Selectivity index, ratio for cytotoxicity for human HeLa cells to MIC for Paracoccidioides brasiliensis Pb18; format: toxicity, cell-based
[7] = Selectivity index, ratio for cytotoxicity for monkey Vero cells to MIC for Paracoccidioides brasiliensis Pb18; format: toxicity, cell-based
Candida = assay: Antifungal activity against Candida; format: functional, organism-based
[8] = tested on: Paracoccidioides brasiliensis; assay: Antifungal activity against Paracoccidioides brasiliensis Pb18 in presence of 0.25 ug/ml amphotericin B; format: functional
[9] = tested on: Paracoccidioides brasiliensis; assay: Antifungal activity against Paracoccidioides brasiliensis Pb18 in presence of 0.01 ug/ml amphotericin B; format: functional
Candida albicans = assay: Antifungal activity against Candida albicans; format: functional
Candida tropicalis = assay: Antifungal activity against Candida tropicalis; format: functional
[10] = tested on: Paracoccidioides brasiliensis; assay: Antifungal activity against Paracoccidioides brasiliensis Pb18 in presence of 0.06 ug/ml amphotericin B; format: functional
Nakaseomyces glabratus = assay: Antifungal activity against Candida glabrata; format: functional

Structure (SMILES)	MIC [1]	MFC [2]	MIC [3]	FIC [5]	Activity (HeLa)	Activity (Vero)	selectivity ratio [6]	selectivity ratio [7]	Activity (Candida)	further results
COc1ccc(/C=N/NC(=O)c2n[nH]c(=O)c3nc(-c4ccccc4)ncc23)cc1	> 256 µg/mL	–	–	–	–	–	–	–	–	–
O=C(N/N=C/c1ccc([N+](=O)[O-])cc1)c1n[nH]c(=O)c2nc(-c3ccccc3)ncc12	> 256 µg/mL	–	–	–	–	–	–	–	–	–
O=C(N/N=C/c1cccc([N+](=O)[O-])c1)c1n[nH]c(=O)c2nc(-c3ccccc3)ncc12	> 256 µg/mL	–	–	–	–	–	–	–	–	–
CCC(C)n1ncn(-c2ccc(N3CCN(c4ccc(OCC5COC(Cn6cncn6)(c6ccc(Cl)cc6Cl)O5)cc4)CC3)cc2)c1=O (stereo not drawn) [ITRACONAZOLE]	1 µg/mL (≈ 1.42 µM)	–	–	–	–	–	–	–	–	–
O=C(N/N=C/c1cc([N+](=O)[O-])ccc1O)c1n[nH]c(=O)c2nc(-c3ccccc3)ncc12	128 µg/mL (≈ 297 µM)	128 µg/mL (≈ 297 µM)	8 µg/mL	0.625	> 80%	> 80%	3	3	inactive	MIC [4]: 0.25 µg/mL
O=C(N/N=C/c1ccc(-c2cccs2)s1)c1n[nH]c(=O)c2nc(-c3ccccc3)ncc12	> 256 µg/mL	–	–	–	–	–	–	–	–	–
O=C(N/N=C/c1ccccc1O)c1n[nH]c(=O)c2nc(-c3ccccc3)ncc12	128 µg/mL (≈ 331 µM)	128 µg/mL (≈ 331 µM)	8 µg/mL	0.625	> 80%	> 80%	3	3	inactive	MIC [4]: 0.25 µg/mL
COc1cc(/C=N/NC(=O)c2n[nH]c(=O)c3nc(-c4ccccc4)ncc23)ccc1O	> 256 µg/mL	–	–	–	–	–	–	–	–	–
O=C(N/N=C/c1cccs1)c1n[nH]c(=O)c2nc(-c3ccccc3)ncc12	> 256 µg/mL	–	–	–	–	–	–	–	–	–
C[C@@H]1[C@H](O)[C@@H](C)/C=C/C=C/C=C/C=C/C=C/C=C/C=C/[C@H](O[C@@H]2O[C@H](C)[C@@H](O)[C@H](N)[C@@H]2O)C[C@@H]2O[C@](O)(C[C@@H](O)C[C@@H](O)[C@H](O)CC[C@@H](O)C[C@@H](O)CC(=O)O[C@H]1C)C[C@H](O)[C@H]2C(=O)O [AMPHOTERICIN B]	1 µg/mL (≈ 1.08 µM)	1 µg/mL (≈ 1.08 µM)	–	–	–	–	–	–	–	–
COc1ccc(/C=N/NC(=O)c2n[nH]c(=O)c3nc(-c4ccccc4)ncc23)cc1OC	64 µg/mL (≈ 149 µM)	64 µg/mL (≈ 149 µM)	16 µg/mL	0.625	> 80%	> 80%	4	4	inactive	MIC [8]: 0.5 µg/mL
CN(C)c1ccc(/C=N/NC(=O)c2n[nH]c(=O)c3nc(-c4ccccc4)ncc23)cc1	> 256 µg/mL	–	–	–	–	–	–	–	–	–
NNC(=O)c1n[nH]c(=O)c2nc(-c3ccccc3)ncc12	> 256 µg/mL	–	–	–	–	–	–	–	–	–
O=C(N/N=C/c1ccccc1)c1n[nH]c(=O)c2nc(-c3ccccc3)ncc12	0.125 µg/mL (≈ 0.337 µM)	0.5 µg/mL (≈ 1.35 µM)	0.031 µg/mL	0.134	> 80%	> 80%	13	13	–	MIC [9]: 1 µg/mL; MIC (Candida albicans): 4 µg/mL (≈ 10.8 µM); MIC (Candida tropicalis): 8 µg/mL (≈ 21.6 µM)
O=C(N/N=C/c1ccc(O)cc1)c1n[nH]c(=O)c2nc(-c3ccccc3)ncc12	32 µg/mL (≈ 82.8 µM)	32 µg/mL (≈ 82.8 µM)	16 µg/mL	0.37	> 80%	> 80%	5	5	inactive	MIC [10]: 0.5 µg/mL
O=C(N/N=C/c1cc(Cl)ccc1O)c1n[nH]c(=O)c2nc(-c3ccccc3)ncc12	64 µg/mL (≈ 152 µM)	64 µg/mL (≈ 152 µM)	4 µg/mL	0.245	> 80%	> 80%	4	4	–	MIC [10]: 0.5 µg/mL; MIC (Nakaseomyces glabratus): 4 µg/mL (≈ 9.51 µM)
COc1cc(/C=N/NC(=O)c2n[nH]c(=O)c3nc(-c4ccccc4)ncc23)cc(OC)c1O	64 µg/mL (≈ 143 µM)	64 µg/mL (≈ 143 µM)	16 µg/mL	0.75	> 80%	> 80%	4	4	inactive	MIC [4]: 0.5 µg/mL
O=C(N/N=C/c1ccccn1)c1n[nH]c(=O)c2nc(-c3ccccc3)ncc12	> 256 µg/mL	–	–	–	–	–	–	–	–	–
O=C(N/N=C/c1ccc(F)cc1)c1n[nH]c(=O)c2nc(-c3ccccc3)ncc12	32 µg/mL (≈ 82.4 µM)	32 µg/mL (≈ 82.4 µM)	8 µg/mL	0.625	> 80%	> 80%	5	5	inactive	MIC [8]: 0.5 µg/mL
